Data on 2 substances can be found in PMC3379994, “Comprehensive Analysis of Interactions between the Src-Associated Protein in Mitosis of 68 kDa and the Human Src-Homology 3 Proteome” (PLoS ONE, 2012).

The target in one assay is T1, β-Pix-SH3 (Homo sapiens, UniProt Q14155).
T1 construct: gene ARHGEF7; β-Pix SH3 domain
T1 sequence (Q14155 184-243): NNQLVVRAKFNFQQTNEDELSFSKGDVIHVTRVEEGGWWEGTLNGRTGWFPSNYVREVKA
The conditions noted are these: cited from earlier work. An excerpt: Remarkably, Kd values calculated for the Sam68-SH3-interactions (considering the aforementioned correction value) lie in the low nanomolar range (cf. Fig. 1B). This is unexpected for SH3 domains, whose affinities are considered to lie in the low micromolar range [2], [51]. However, critical examination of the literature challenges the generality of the latter proposition. […] This can have a significant influence on binding-strength, as illustrated for instance for the Abp1-SH3 domain, comprising a Kd-value of 100 µM to a 14-mer ligand-peptide, and 40 µM after elongation to a 17-mer peptide. Nevertheless, some values obtained for Sam68-SH3 interactions still are one order of magnitude lower than even the best reported in the literature. Likely, this is due to an artifical avidity effect resulting from the use of the SH3-phages. As the SH3 domains bind to more than one of the PxxP-motifs, it is conceivable that one phage-particle docks to two or more PxxP-motifs of an individual Sam68 molecule via multiple SH3 domains. Consequently, even after dissociation of one SH3-PxxP-pair, the phage would still be retained by the protein. Kinetically, this corresponds to a decrease in the off-rate and concomitantly to a decrease in the Kd value. The affinity gain of the interaction is not due to cooperativity, as is evident from the Hill-transformed ELISA data yielding Hill-coefficients α of 1.0. […]

The next assay addresses Nck1#2 (Homo sapiens, UniProt P16333). As to conditions: n = 3. As for the experimental part: To characterize the binding of SH3-phages to recombinant proteins, phage-ELISA analyses were performed. First, 1 µg of recombinant protein per well was immobilized on 96-well MaxiSorp plates (Nunc) over night. After washing thrice with PBS/T (PBS with 0.1 % Tween-20) and blocking with 5 % BSA in PBS, dilution-series of the respective phage-supernatants in 2×YTAmp,Kana were added and incubated for 1 h. After washing 10 times with PBS/T, an HRP-coupled anti-M13-antibody (GE Healthcare, 27-9421-01) diluted 1 : 5000 in blocking solution was added for 1 h. After washing again 10 times, TMB substrate solution was added, the reaction finally stopped by addition of 0.5 M H2SO4, and the result read out by measuring OD450. […]
First, we aimed at quantifying the binding affinities of the SH3-displaying phages to Sam68. […] Finally, bound phages were detected using an anti-M13-specific HRP-coupled antibody. […]
(§1) Figure 1 Analysis of Sam68-binding SH3 domains in vitro. […] The amounts of bound phages were measured using a horseradish peroxidase-conjugated anti-M13-specific antibody with TMB-substrate detection at 450 nm (mean of three independent experiments, normalized to maximum OD-values). […] Bound proteins were eluted and Sam68 was detected by western blot analysis. […]

The target in another assay is Src (Homo sapiens, UniProt P12931). As to conditions: n = 3. As for the experimental part:
(§2) To characterize the binding of SH3-phages to recombinant proteins, phage-ELISA analyses were performed. First, 1 µg of recombinant protein per well was immobilized on 96-well MaxiSorp plates (Nunc) over night. After washing thrice with PBS/T (PBS with 0.1 % Tween-20) and blocking with 5 % BSA in PBS, dilution-series of the respective phage-supernatants in 2×YTAmp,Kana were added and incubated for 1 h. After washing 10 times with PBS/T, an HRP-coupled anti-M13-antibody (GE Healthcare, 27-9421-01) diluted 1 : 5000 in blocking solution was added for 1 h. After washing again 10 times, TMB substrate solution was added, the reaction finally stopped by addition of 0.5 M H2SO4, and the result read out by measuring OD450.
(§3) First, we aimed at quantifying the binding affinities of the SH3-displaying phages to Sam68. To this end, we established a phage-ELISA procedure to separately analyse phage supernatants of the ten individual SH3-phages. In brief, His-Sam68 was coated to a 96-well plate, blocked and incubated with a dilution series of phage supernatants. Finally, bound phages were detected using an anti-M13-specific HRP-coupled antibody. As depicted in Fig. 1A, binding curves were obtained that are typical for a simple ligand-receptor relationship as is expected for an SH3-domain-PxxP-interaction showing no allosteric effects. Kd-values can not be deduced from these curves in the first instance, because the concentration of SH3 domains in the supernatants is unknown due to each phage particle presenting many copies on its surface. […]
as §1

A further assay concerns the target Hck (Homo sapiens, UniProt P08631). As to conditions: n = 3. As to the method:
as §2, §3, §1

Another assay concerns the target T2, IS2#3 (Homo sapiens, UniProt Q9NZM3).
T2 construct: gene ITSN2
T2 sequence (Q9NZM3 981-1039): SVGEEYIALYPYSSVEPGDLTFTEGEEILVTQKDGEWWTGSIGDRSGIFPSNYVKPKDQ
As to conditions: n = 3. As to the method: as §2, §3, §1

Sequence of Hck (P08631 78-138): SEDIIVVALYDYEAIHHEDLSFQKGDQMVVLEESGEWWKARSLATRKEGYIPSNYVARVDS

For the substance Pak2, on β-Pix-SH3, the Kd is 59 nM.

In the case of “Src-associated in mitosis 68 kDa (KHDRBS1), full-length, N-terminally His-tagged recombinant [Sam68]”, the dissociation constant (Kd) on Nck1#2 amounted to 31 nM; on Src it was 6 nM; at Hck, 31 nM; on IS2#3, 59 nM.
